# In patent US4861897A, “2-Aryloxyalkylaminobenzoxazoles and 2-aryloxyalkylaminobenzothiazoles” (Ortho Pharmaceutical Corporation, priority 1987, dated 1989):
# Like-named read-outs stand apart in the source and are kept apart here.
# What was measured:
# [1] = test system: histamine stimulated parietal cell; assay: Isolated parietal cell assay, inhibition of 14C-aminopyrine accumulation, histamine stimulated; type: cell-based, rabbit; conditions: Example 48, 37° C., read-out: IC50 vhist (inhibition of 14C-AP accumulation in histamine stimulated parietal cell)
# Experimental: (§1) Isolated Parietal Cell Assay
# (§2) The isolated parietal cell assay was conducted using the procedures of Batzri, S. et al., Biochemica et Biophysica Acta 508, 328 (1978) and Soll, A. H. Am. J. Physiol. 238, G366 (1980). Basically, parietal cells were isolated from the fundic mucosa of rabbit stomachs by a four-stage collagenase digestion process. The supernatant fractions from the last two stages of this process contain the individual parietal cells. This cell suspension was centrifuged and reconstituted in a modified Hank's buffer to contain 1-2×10^6 cells/ml. […] This accumulation was stimulated by histamine and was blocked by H2 antagonists. The cells were incubated with 0.4-0.5×10^6 cpm ^14 C-AP, with various concentrations of histamine as a stimulant, 1×10^-5 M isobutylmethylxanthine, and the test compound added in a 20 μl volume of buffer or DMSO. The flasks were incubated in a shaking water bath at 37° C. for 20 minutes. Two aliquots were then taken from each flask and cell pellets were collected by centrifugation. The pellets were solubilized with Protosol (New England Nuclear) and radioactivity determined by liquid scintillation spectrometry. Data is presented as the IC50 vhist, the concentration of compound required to inhibit ^14 C-AP accumulation in the histamine stimulated parietal cell by 50%. When dibutyryl cAMP was used to stimulate the cells instead of histamine, a similar inhibition of ^14 C-AP accumulation was measured and the data are presented as the IC50 vcAMP, the concentration required to inhibit ^14 C-AP accumulation in the cAMP stimulated parietal cells by 50%.
# [2] = test system: cAMP stimulated parietal cells; assay: Isolated parietal cell assay, inhibition of 14C-aminopyrine accumulation, dibutyryl cAMP stimulated; type: cell-based, rabbit; conditions: Example 48, 37° C., read-out: IC50 vcAMP (inhibition of 14C-AP accumulation in cAMP stimulated parietal cells)
# Experimental: as §1, §2
# [3] = target: T1, parietal cell H^+ K^+ ATPase (Oryctolagus cuniculus, UniProt P27112); assay: Inhibition of parietal cell H+ K+ ATPase; type: biochemical, New Zealand white rabbits; conditions: Example 49; given as "50% @ x μM"; read-out: % Inhibition at Concentration (H+ K+ ATPase): concentration given for 50% inhibition
# T1 construct: determined in fundic mucosa from New Zealand white rabbits which were homogenized; from tissue; host or cells: fundic mucosa of New Zealand white rabbits, homogenized; membrane protein
# Experimental: Inhibition of Parietal Cell H^+ K^+ ATPase
# The activity was measured in a 1 ml incubation volume containing 50 mM Tris pH 7.4, 2 mM MgCl2, 2 mM Na2 ATP, with or without 20 mM KCl and vehicle control (dimethylsulfoxide) or test compound added in a 0.02 ml volume. Typically, 20-50 μg membrane protein was added and the tubes were preincubated with test compound for 10 minutes at 37° C. Substrate, Na2 ATP, was then added and the tubes were incubated for another 15 minutes at 37° C. The reaction was stopped by the addition of 1 ml 14% trichloroacetic acid and the samples were centrifuged at 2,000 xg for 10 minutes. The amount of inorganic phosphate present in an aliquot of supernatant was determined. H^+ K^+ ATPase activity was determined after correcting for the basal (Mg^++ only) enzyme activity present in the membrane preparation.
# acid output = assay: Gastric secretion, acid output in pylorus ligated rats; type: in vivo, male Charles River Sprague Dawley derived rats; conditions: Example 50, @ 20 mpK, i.d. or s.c., four hours after pylorus ligation, compared to control; for response vs control in vivo at 20 mg/kg: Rattus norvegicus, 4 h, read-out: % Acid Secreted at mpK
# Experimental: The inhibitory activity of the compounds on acid output was tested using pylorus ligation in a modification of the procedure of Shay, H. et al., Gastroenterology 26, 906 (1954). Basically, male Charles River Sprague Dawley derived rats weighing 150-300 grams were deprived of food but not water for 18-24 hours prior to use. Water was withheld during the experiment, however. The rats were weighed, anesthetized with ether and the pylorus ligated according to the method of Shay et al., supra. Treatment or vehicle control was then administered intraduodenally (i.d.) or subcutaneously (s.c.). Rats were housed two/cage and sacrificed with CO2 four hours after ligation. The stomachs were removed, rinsed, and contents emptied into a graduated centrifuge tube. The tubes were centrifuged, the volume of gastric juice recorded, and any samples obviously contaminated by feces, food or blood were eliminated. A 1 ml aliquot of gastric juice was titrated with 0.1N NaOH to a pH of 7.0-7.4. The volume of gastric juice secreted, the acid concentration, and the product of the volume times the concentration, i.e., the total amount of acid secreted, were measured.
# T1 sequence (P27112 2-1035 limits assumed): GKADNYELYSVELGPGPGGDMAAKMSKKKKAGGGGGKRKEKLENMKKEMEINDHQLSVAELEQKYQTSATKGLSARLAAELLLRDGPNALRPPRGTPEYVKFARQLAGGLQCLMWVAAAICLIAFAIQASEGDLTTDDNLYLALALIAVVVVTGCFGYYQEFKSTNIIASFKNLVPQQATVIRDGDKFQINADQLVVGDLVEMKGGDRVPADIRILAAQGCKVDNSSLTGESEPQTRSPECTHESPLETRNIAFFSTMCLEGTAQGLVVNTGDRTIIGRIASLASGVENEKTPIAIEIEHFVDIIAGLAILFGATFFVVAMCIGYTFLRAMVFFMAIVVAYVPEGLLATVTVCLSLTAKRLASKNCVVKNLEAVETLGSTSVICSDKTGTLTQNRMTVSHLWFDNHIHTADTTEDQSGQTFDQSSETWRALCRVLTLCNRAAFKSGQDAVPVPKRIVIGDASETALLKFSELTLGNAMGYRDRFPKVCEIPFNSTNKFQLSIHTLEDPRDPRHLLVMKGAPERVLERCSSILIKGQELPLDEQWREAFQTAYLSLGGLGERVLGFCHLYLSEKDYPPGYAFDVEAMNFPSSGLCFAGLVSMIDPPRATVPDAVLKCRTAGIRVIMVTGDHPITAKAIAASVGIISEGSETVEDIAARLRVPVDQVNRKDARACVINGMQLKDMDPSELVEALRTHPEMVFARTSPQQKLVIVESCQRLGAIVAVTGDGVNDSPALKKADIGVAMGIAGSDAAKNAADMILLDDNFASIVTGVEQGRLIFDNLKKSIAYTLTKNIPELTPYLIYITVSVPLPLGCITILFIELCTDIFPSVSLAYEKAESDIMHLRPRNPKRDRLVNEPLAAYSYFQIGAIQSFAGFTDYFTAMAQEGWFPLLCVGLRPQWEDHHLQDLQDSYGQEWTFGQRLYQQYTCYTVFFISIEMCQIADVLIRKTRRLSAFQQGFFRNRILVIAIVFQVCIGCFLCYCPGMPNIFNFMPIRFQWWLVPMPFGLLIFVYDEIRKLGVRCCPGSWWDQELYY
# T1 sequence (P18597 whole entry partner): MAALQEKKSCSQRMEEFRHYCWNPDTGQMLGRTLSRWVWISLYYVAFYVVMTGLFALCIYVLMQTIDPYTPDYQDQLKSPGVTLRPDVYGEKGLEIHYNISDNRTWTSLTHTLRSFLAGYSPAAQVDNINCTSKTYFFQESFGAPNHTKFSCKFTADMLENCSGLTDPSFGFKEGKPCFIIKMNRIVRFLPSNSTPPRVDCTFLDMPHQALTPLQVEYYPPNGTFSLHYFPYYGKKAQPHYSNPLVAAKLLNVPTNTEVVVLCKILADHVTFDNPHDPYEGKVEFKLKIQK
"IC50 ([1]; Oryctolagus cuniculus, 20 min) [nM]","IC50 ([2]; Oryctolagus cuniculus, 20 min) [nM]",IC50 [3] [µM],IC50 ([1]; 20 minutes) [nM],IC50 ([2]; 20 minutes) [nM],Compound,response vs control in vivo at 20 mg/kg (acid output) [%],% Acid Secreted at mpK (acid output) [%]
150,360,33,–,–,"CCCN(CCC)CCCOc1c(OC)cc(/C=C/c2nc3ccccc3o2)cc1OC [Example 46, (E)-2-[2-(3,5-Dimethoxy-4-dipropylaminopropoxyphenyl)ethenyl]benzoxazole]",46,–
140,100,15,–,–,CCCN(CCC)CCCOc1c(C)cc(/C=C/c2nc3ccccc3o2)cc1C [Example 47],90,–
–,–,66,410,1400,(E)-2-[2-[4-(3-Methylbenzylaminopropoxy)phenyl]ethenyl]benzoxazole [Example 13],–,34

Compound,"IC50 ([1]; Oryctolagus cuniculus, 20 min) [nM]","IC50 ([2]; Oryctolagus cuniculus, 20 min) [nM]",IC50 [3] [µM],IC50 ([1]; 20 minutes) [nM],IC50 ([2]; 20 minutes) [nM],response vs control in vivo at 20 mg/kg (acid output) [%],% Acid Secreted at mpK (acid output) [%]
"CCCN(CCC)CCCCOc1ccc(/C=C/c2nc3ccccc3o2)cc1Cl [Example 45, (E)-2-[2-(3-Chloro-4-dipropylaminobutoxyphenyl]ethenyl]benzoxazole]",800,740,17.5,–,–,42,–
